In US9828623B2 (priority 2014, dated 2017):

System: cDNA probe
Conditions: pH 7.5

Substance | event mean residence time
TTTTTTTTTTTTTTTTTTTT [T20] | 0.12 ± 0.01 ms
5′-GGATTATGGTGAAATATTGA-3′ [aLF-2] | 57.4 ± 2.5 ms
5′-GGATTATTGTGAAATATTGA-3′ [aLF-1] | 342 ± 35 ms
AAAAAAAAAAAAAAAAAAAA [A20] | 11.7 ± 0.2 ms
